Laboratory results taken from article PMC6413339 (EBioMedicine, 2019).
Entries after “also recorded” stand apart in the source; their conditions may differ.

Columns and labels:
Src = molecular target: T1, Src (Homo sapiens, UniProt P12931); experiment: Cell-free kinase assay (Reaction Biology, ADP-Glo); type: biochemical
T1 construct: purchased Invitrogen PR4336E
Description: (§1) Cell-free kinase activity assays were performed at Reaction Biology Corporation. Briefly, kinases were incubated with substrates, 100 μM ATP and a 3-fold serial dilution of compounds starting at 1 μM. DMSO was used as control. […] Experiments were performed in duplicates. The concentrations of kinases and substrates used in the assays are indicated on Table S1. Kinase activity was quantified using the ADP-Glo™ Kinase Assay System (Promega, Madison, WI) following the manufacturer's recommendations.

ARAF = molecular target: T2, ARAF (Homo sapiens, UniProt P10398); experiment: Cell-free kinase assay, dose-response; type: biochemical; details: ATP 100 μM; read-out: IC50 ARAF (A-Raf)
T2 construct: purchased BPS 40010
T2 sequence (P10398 whole entry): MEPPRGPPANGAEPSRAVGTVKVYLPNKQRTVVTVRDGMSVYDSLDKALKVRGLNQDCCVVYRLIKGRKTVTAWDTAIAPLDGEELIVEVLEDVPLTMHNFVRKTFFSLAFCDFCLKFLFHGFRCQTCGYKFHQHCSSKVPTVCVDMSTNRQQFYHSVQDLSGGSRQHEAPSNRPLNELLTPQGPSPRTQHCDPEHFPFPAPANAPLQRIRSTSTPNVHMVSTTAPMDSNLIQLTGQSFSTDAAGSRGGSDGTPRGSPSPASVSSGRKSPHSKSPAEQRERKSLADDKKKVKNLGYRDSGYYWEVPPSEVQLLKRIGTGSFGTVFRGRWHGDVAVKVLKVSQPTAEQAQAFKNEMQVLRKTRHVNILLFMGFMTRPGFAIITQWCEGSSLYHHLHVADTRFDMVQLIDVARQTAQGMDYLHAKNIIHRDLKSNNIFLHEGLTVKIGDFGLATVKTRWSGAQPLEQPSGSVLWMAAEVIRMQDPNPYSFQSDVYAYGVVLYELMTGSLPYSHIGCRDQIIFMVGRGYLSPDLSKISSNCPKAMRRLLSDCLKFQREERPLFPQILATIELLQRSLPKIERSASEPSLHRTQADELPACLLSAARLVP
Description: as §1

BRAF = molecular target: T3, BRAF (Homo sapiens, UniProt P15056); experiment: Cell-free kinase assay, dose-response; type: biochemical; details: ATP 100 μM; read-out: IC50 BRAF (B-Raf)
T3 construct: purchased BPS 40005
T3 sequence (P15056 whole entry): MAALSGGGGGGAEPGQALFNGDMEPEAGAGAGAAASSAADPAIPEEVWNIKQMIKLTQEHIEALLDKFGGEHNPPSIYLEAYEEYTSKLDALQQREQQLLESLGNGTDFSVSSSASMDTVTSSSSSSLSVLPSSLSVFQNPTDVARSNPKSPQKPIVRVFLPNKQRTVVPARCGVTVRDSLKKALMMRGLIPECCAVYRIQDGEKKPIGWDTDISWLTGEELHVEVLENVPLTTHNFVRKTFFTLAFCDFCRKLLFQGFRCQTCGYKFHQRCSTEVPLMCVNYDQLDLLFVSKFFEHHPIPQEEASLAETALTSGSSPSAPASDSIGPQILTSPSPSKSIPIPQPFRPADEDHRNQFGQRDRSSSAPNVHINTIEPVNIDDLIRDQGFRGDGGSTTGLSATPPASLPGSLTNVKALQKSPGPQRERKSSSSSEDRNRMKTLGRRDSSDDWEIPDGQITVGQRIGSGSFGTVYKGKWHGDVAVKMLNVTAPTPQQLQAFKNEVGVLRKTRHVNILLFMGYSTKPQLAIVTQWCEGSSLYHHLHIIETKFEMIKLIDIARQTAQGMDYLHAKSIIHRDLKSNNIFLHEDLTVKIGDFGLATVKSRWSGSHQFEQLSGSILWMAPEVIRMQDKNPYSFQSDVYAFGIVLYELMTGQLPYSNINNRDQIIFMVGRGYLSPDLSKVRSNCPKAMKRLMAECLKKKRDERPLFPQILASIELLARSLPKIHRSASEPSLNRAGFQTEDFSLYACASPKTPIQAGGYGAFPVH
Description: as §1

MEK1 = molecular target: T4, MEK1 (Homo sapiens, UniProt Q02750); experiment: Cell-free kinase assay, dose-response; type: biochemical; details: up to 1 μM; ATP 100 μM
T4 construct: purchased Invitrogen PV3303
T4 sequence (Q02750 whole entry): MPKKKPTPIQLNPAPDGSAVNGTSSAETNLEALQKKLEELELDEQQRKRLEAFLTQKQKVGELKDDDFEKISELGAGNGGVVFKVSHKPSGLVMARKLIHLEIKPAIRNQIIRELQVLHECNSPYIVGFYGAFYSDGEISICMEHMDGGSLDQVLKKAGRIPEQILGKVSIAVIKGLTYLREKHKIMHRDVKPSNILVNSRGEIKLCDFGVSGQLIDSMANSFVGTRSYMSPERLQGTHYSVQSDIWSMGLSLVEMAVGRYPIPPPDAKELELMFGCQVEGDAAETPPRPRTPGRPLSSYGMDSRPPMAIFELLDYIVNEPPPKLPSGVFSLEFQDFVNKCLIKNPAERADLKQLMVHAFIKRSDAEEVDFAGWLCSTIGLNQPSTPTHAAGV
Description: as §1

RAF-1 = molecular target: T5, RAF-1 (Homo sapiens, UniProt P04049, Y340D/Y341D); experiment: Cell-free kinase assay, dose-response; type: biochemical; details: ATP 100 μM; read-out: IC50 RAF-1 (c-Raf)
T5 construct: purchased Invitrogen PV3805
T5 sequence (P04049 306-648 Y340D/Y341D limits assumed): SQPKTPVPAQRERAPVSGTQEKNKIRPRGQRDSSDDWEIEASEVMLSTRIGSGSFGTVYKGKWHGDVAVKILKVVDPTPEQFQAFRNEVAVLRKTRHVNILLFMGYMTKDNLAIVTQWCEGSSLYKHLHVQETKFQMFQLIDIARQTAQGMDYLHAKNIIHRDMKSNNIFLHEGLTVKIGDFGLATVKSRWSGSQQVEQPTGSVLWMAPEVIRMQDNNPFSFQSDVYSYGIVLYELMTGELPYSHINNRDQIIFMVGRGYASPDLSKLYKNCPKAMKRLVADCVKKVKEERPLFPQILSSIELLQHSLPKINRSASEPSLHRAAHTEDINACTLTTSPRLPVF
Description: as §1

RSK1 = molecular target: T6, RSK1 (Homo sapiens, UniProt Q15418); experiment: Cell-free kinase assay, dose-response; type: biochemical; details: ATP 100 μM
T6 construct: purchased Invitrogen PR6812A
T6 sequence (Q15418 whole entry): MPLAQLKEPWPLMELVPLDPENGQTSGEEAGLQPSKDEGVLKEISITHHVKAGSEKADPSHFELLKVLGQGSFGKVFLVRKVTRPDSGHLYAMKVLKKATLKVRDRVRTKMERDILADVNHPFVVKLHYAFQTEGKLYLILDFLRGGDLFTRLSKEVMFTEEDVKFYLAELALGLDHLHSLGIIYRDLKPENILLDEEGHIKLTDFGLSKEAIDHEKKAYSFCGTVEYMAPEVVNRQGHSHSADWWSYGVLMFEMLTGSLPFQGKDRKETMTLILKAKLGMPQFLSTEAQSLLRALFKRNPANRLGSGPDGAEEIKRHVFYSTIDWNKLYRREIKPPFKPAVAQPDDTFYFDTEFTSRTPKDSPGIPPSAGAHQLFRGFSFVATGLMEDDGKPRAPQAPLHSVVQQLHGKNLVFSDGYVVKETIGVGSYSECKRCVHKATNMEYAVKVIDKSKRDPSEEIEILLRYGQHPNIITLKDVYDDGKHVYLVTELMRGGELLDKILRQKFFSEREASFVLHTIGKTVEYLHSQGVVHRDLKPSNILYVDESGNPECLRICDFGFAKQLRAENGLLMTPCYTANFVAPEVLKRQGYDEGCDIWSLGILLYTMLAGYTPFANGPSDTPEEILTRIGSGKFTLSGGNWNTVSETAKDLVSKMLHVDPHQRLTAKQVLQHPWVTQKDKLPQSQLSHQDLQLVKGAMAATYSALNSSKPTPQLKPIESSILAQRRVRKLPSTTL
Description: as §1

p38 = molecular target: T7, p38 (Homo sapiens, UniProt Q16539); experiment: Cell-free kinase assay, dose-response; type: biochemical; details: ATP 100 μM
T7 construct: purchased Invitrogen PV3304
T7 sequence (Q16539 whole entry): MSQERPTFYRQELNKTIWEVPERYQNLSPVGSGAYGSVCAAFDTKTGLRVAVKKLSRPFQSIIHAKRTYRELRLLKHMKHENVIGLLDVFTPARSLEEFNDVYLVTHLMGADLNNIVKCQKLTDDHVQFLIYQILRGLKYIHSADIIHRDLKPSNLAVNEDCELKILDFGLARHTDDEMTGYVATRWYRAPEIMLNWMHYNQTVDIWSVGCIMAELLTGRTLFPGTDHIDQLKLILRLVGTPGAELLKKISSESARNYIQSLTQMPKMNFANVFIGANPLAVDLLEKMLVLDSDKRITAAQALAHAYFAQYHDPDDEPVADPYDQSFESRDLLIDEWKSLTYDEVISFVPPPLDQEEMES
Description: as §1

p70S6K = molecular target: T8, p70S6K (Homo sapiens, UniProt P23443); experiment: Cell-free kinase assay, dose-response; type: biochemical; details: ATP 100 μM
T8 construct: purchased Invitrogen PV3815
T8 sequence (P23443 whole entry): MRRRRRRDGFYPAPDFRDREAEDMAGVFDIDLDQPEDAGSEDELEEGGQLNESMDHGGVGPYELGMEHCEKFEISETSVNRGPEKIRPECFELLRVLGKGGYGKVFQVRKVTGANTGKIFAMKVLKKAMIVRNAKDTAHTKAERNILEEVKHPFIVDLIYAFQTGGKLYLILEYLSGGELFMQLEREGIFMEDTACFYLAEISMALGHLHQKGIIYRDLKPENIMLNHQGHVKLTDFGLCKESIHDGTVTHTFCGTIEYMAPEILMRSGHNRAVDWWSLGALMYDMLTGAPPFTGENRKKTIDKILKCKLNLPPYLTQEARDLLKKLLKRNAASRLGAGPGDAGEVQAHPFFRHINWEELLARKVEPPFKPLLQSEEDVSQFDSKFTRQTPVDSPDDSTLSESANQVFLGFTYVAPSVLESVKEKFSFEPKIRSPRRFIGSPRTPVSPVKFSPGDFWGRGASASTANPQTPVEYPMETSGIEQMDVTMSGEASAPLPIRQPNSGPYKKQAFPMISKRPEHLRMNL
Description: as §1

MV4–11-luc cells = experiment: In vivo efficacy, orthotopic human AML model; details: for Photon intensity on whole body (mean±SEM): 25 mg/kg IP, 3×/week
Description: The in vivo efficacy of compounds was assessed in an orthotopic human AML model in NSG (NOD scid gamma, NOD-scid IL2Rg^null) mice that were bred at University of Maryland Baltimore (mating pairs acquired from Jackson Laboratories; Maine). […]. Three days later, engraftment was assessed by imaging on a Xenogen IVIS-2 Imaging System (Alameda) after an intraperitoneal (IP) injection of 150 mg/kg luciferin. Mice were sorted into four or five groups (n = 5) so that mean intensity (i.e., disease burden) was equal. Dosing started on day of sorting. Compounds were dissolved in 85% PBS (pH 7.4) buffer containing 10% DMSO and 5% Cremophore. The vehicle (buffer without compounds) was used as control. Mice were injected 3 to 5 days per week via IP injection. Mice were weighed on day of dosing and imaged once per week. […]. All mice were housed in a 12-h light/dark cycle with access to food and water ad libitum. Studies were performed with Institutional Animal Care and Use Committee (UMB and Purdue University) approval.
[…]. Female mice were dosed daily for 5 days via intraperitoneal injection and then monitored for an additional week for weight loss, a sign of toxicity in mice. […] To evaluate the anti-leukemic efficacy in vivo, six-week-old female NSG or NRG mice were injected intravenously with FLT3-ITD expressing acute myeloid leukemia cells (MV4–11), expressing luciferase. […] Dosing (i.p) with the compounds was then started. The mice were dosed with 25 mg/kg of the compounds three times a week (MWF). […] […].

[1] = tested on: AML cell lines (MV4–11, MOLM-14, MOLM-14 (ITD, D835Y), MOLM-14 (ITD, F691 L)); experiment: Annexin V apoptosis (flow cytometry); type: cell-based, human; details: 24 h and 48 h; dose- and time-dependent
Description: Cells seeded into T-25 flasks at a density of 8.0 × 10^4 cells/mL and incubated overnight at 37 °C with 5% CO2. Each treatment was performed in triplicates, with three flasks per treatment each with enough volume for both assays at the applicable time points. Following the overnight incubation, cells were treated with either DMSO or different concentrations of HSN431 (as indicated) in triplicates, mixed well and incubated. At each time point (24 and 48 h), aliquots of 1.5 mL of cells were collected from each flask and placed into labeled FACS tubes (for Annexin V apoptosis) or labeled 15 cc conical tubes (for cell cycle) and centrifuged at 300 × g for 5 min. Cells were washed twice with 1× PBS.
For Annexin V apoptosis, cell pellets were resuspended in 100 μL of 1× assay buffer and the binding of Annexin V and PI were measured by staining cells following the BD Pharmingen™ FITC Annexin V Apoptosis Detection Kit I (cat. no. 556547, BD Biosciences, San Jose, CA, USA) recommendations. Flow cytometry was performed on a a FACSCanto II flow cytometer (BD Bioscience, San Jose, CA, USA) and data analyzed using the FlowJo software (Flowjo, LLC, Ashland, OR).

T1 sequence (P12931 whole entry): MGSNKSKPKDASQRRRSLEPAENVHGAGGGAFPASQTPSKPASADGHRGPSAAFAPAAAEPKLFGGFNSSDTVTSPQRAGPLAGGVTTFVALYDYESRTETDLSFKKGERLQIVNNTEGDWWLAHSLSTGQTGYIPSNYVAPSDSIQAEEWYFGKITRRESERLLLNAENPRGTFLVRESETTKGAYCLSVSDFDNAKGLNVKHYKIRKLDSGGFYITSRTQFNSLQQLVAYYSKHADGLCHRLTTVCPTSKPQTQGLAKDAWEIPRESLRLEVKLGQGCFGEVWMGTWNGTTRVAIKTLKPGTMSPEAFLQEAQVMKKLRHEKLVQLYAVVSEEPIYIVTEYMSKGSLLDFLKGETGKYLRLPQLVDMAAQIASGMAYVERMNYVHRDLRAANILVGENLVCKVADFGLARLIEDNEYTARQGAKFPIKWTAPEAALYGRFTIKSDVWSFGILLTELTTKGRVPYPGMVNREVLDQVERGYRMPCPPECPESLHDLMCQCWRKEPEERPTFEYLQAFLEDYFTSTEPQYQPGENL

## Cc1ncc(C(=O)Nc2ccc(CN3CCN(C)CC3)c(C(F)(F)F)c2)cc1C#Cc1c(N)ncc2ccc(F)cc12 [Compound 7]
Src; Src 0.6 nM, ATP 100 μM, read-out: IC50 against Src
  IC50: 12.6 nM
Src; inhibitor 500 nM, 100 μM ATP, average of duplicate
  inhibition at 0.5 µM: 98%
ARAF
  IC50: 27.6 nM
BRAF
  IC50: 26.3 nM
MEK1
  inhibition of MEK1 kinase activity: but not the downstream effectors MEK1, ERK1 and RSK1
RAF-1
  IC50: 12.8 nM
RSK1
  IC50: 1480 nM
p38
  IC50: 46.2 nM
p70S6K
  IC50: 44.7 nM
MV4–11-luc cells; 25 mg/kg IP 3×/week for several weeks, listed as HSN431
  adverse events / signs of toxicity on repeated dosing: without any adverse events; also recorded: without any obvious signs of toxicity
MV4–11-luc cells; 25 mg/kg i.p. three times a week (MWF), NSG or NRG mice
  reduction in leukemia burden: > 99%
MV4–11-luc cells; Day 1, n = 5
  Photon intensity on whole body (mean±SEM): 130000 ± 21400
MV4–11-luc cells; Day 27, n = 5
  Photon intensity on whole body (mean±SEM): 4570 ± 615
MV4–11-luc cells; Day 41, n = 5
  Photon intensity on whole body (mean±SEM): 19600 ± 3730
MV4–11-luc cells; Day 73, n = 5
  Photon intensity on whole body (mean±SEM): 4390 ± 140
MV4–11-luc cells; after day 73, 25 mg/kg IP 3×/week, n = 5
  survival: all five mice were still alive
MV4–11-luc cells; day 40, 25 mg/kg three times per week, all control mice had died
  mice still alive: 100%
[1]
  total apoptosis: induced apoptosis
